8 compounds from patent US12448383B2, “Compounds and methods for treatment of viral infections” (priority 2022, dated 2025) can be followed below.

For data set [1], the system named is Respiratory syncytial virus recombinant with luciferase (RSV-Luc5) in Normal Human Bronchial Epithelial (NHBE) cells. Nature of the data set: microbe, parasite or virus in culture. The class given is cell-based. As to conditions: 72 h, read-out: RSV NHBE EC50.
Data set [2] is described as follows: CC50 MT4 cytotoxicity (Cell-Titer Glo). As to conditions: human. The class given is cell-based. The method, then:
Cytotoxicity of the compounds was determined in uninfected cells using the cell viability reagent in a similar fashion as described before for other cell types (Cihlar et al., Antimicrob Agents Chemother. 2008, 52(2):655-65). HEp-2 (1.5×10^3 cells/well) and MT-4 (2×10^3 cells/well) cells were plated in 384-well plates and incubated with the appropriate medium containing 3-fold serially diluted compound ranging from 15 nM to 100,000 nM. Cells were cultured for 4-5 days at 37° C. Following the incubation, the cells were allowed to equilibrate to 25° C., and cell viability was determined by adding Cell-Titer Glo viability reagent. The mixture was incubated for 10 min, and the luminescence signal was quantified using an Envision plate reader. Untreated cell and cells treated at 2 μM puromycin (Sigma, St. Louis, MO) serve as 100% and 0% cell viability control, respectively. The percent of cell viability was calculated for each tested compound concentration relative to the 0% and 100% controls and the CCso value was determined by non-linear regression as a compound concentration reducing the cell viability by 50%.

The test system of data set [3] is Caco-2 cells (clone C2BBe1). As to the kind of experiment: CACO-2 permeability. The class given is in vitro ADME. On the set-up: unit not given here. Particulars: for DM Caco2 A to B: apical to basolateral, donor pH 6.5, receiver pH 7.4; for DM Caco2 B to A: basolateral to apical. Here is the method:
Pre-plated Caco-2 cells (clone C2BBel) were obtained from Sigma-Aldrich, Inc. (Atlanta, GA). Cell monolayers were grown to confluence on collagen-coated, microporous, polycarbonate membranes in 24-well transwell plates for 21 days. The permeability assay buffer in donor wells was Hanks' balanced salt solution (HBSS) containing 10 mM HEPES and 15 mM glucose at a pH of 6.5 containing 200 μM BNPP. The receiver wells used HBSS buffer containing 10 mM HEPES and 15 mM glucose at a pH of 7.4 and supplemented with 1°% BSA. After an initial equilibration with transport buffer, TEER values were read to test membrane integrity. The experiment was started by the addition of buffers containing test compounds, 200 μl and 1000 μl in the apical and basolateral chamber, respectively. At 0- and 2-hour post dose, 10 μL was sampled from donor compartment and was immediately diluted in 190 μL of 20% methanol. At 1 and 2 hours post dose, 100 μl of solution was taken from the receiver compartments and was immediately diluted in 100 μl of 20% methanol. Removed buffer was replaced with fresh buffer and a correction was applied to all calculations for the removed material. Each compound was tested in 2 separate replicate wells for each condition. All samples were then extracted with 400 μl 100% acetonitrile with internal standard to precipitate protein. Cells were dosed on the apical or basolateral side to determine forward (A to B) and reverse (B to A) permeability. To test for non-specific binding and compound instability, the total amount of drug was quantitated at the end of the experiment and compared to the material present in the original dosing solution as a percent recovery. […] Samples were analyzed by LC-MS/MS.
On the technique in general: Caco-2 monolayers are a common model of the intestinal barrier.

For data set [4], the system named is SARS Coronavirus 2 recombinant with NanoLuc (SARS-CoV2-NLuc) in A549-hACE2 cells. As to the kind of experiment: organism not typed. The class given is cell-based. Particulars: 48 h; read-out: SARS-CoV2 EC50.
Another data set can be described thus: Plasma stability. The class given is in vitro ADME. More on the design: unit not given here. Particulars: 37° C., 2 μM substrate. Here is the method: At 0.05, 0.5, 1, 2, 3 and 4 hr, […] aliquots of the reaction mixture were transferred to plates containing […] of IS/Q quenching solution. After quenching, the plates were centrifuged at 3000 g for 30 minutes, and 150 μL supernatant was diluted with 150 μL water. Aliquots ([…]) of the diluted supernatant were analyzed on a Thermo Q-Exactive mass spectrometer as described below.
Mobile phase A consisted of 0.1% (v/v) formic acid in water. Mobile phase B consisted of 0.1% (v/v) formic acid in acetonitrile. Elution of analytes was achieved by a series of linear gradients of acetonitrile in water containing 0.1°(v/v) formic acid. The mass spectrometer was calibrated on a weekly basis and mass tolerance of 5 ppm was used.

The nature of data set [5]: GI S9 stability - no PMSF. The class given is in vitro ADME. Particulars: pH 7.4; human intestinal S9, PMSF-free; read-out: GIS9-HUMAN-NoPMSF T1/2. The method, then: Duplicate aliquots of test compound or positive control substrate (GS-7340) were added to S9 stock diluted with 100 mM phosphate buffered saline, pH 7.4, to obtain a protein concentration of 1.0 mg/mL. The S9 metabolic reactions were initiated by the addition of the substrates to the S9 reaction mixture to a final concentration of 2 μM. At 0, 10, 20, 30, 60 and 120 min, […] aliquots of the reaction mixture were transferred to plates containing […] of IS/Q solution. After quenching, the plates were centrifuged at 3000 g for 30 minutes, and 150 μL aliquots of each supernatant were diluted with 150 μL water. Aliquots ([…]) of the diluted supernatant were analyzed on a Thermo Q-Exactive mass spectrometer as described below. GI S9 Stability—No phenylmethylsulfonyl fluoride (PMSF): Similar to the procedure described above, test compounds were incubated at 2 μM with 1 mg/mL PMSF-free Intestinal S9 fractions. Samples are removed at 6 time points over the course of a 120 min experiment and the parent compound disappreance and reference compound A formation is determined by mass spectrometry.
Example K: Liquid Chromatography/Mass Spectroscopy Methods for S9 and Plasma Stability
Quantification of test compounds, Reference Compound A (S9 stability assay nucleoside metabolite), and controls was performed by analyte/internal standard peak area ratio (PAR) values measured on a Thermo Q-Exactive mass spectrometer coupled to a Dionex UltiMate 3000 HPLC with a Leap Technologies HTC PAL autosampler. The column used for analysis of test compounds and Reference Compound A was a Waters Acquity BEH C18 ([…] particle size, 2.1′50 mm). The column used for control (GS-7340) was a Thermo Hypersil GOLD ([…] particle size, 2.1′50 mm). Mobile phase A consisted of 0.1% (v/v) formic acid in water. Mobile phase B consisted of 0.1% (v/v) formic acid in acetonitrile. Elution of analytes was achieved by a series of linear gradients of acetonitrile in water containing 0.1°(v/v) formic acid. The mass spectrometer was calibrated on a weekly basis and mass tolerance of 5 ppm was used.

The structures appear in SMILES notation. Some results are limits rather than exact numbers.

In general, EC50 refers to the concentration that produces a half-maximal response. Broadly, the CC50 is the concentration giving 50% cytotoxicity. With `CC1=CCC(OC(=O)OC[C@H]2O[C@@](C#N)(c3ccc4c(N)ncnn34)[C@H](O)[C@@H]2O)(C(C)C)CC1` (stereo partly drawn) [Compound 74, ((2R,3S,4R,5R)-5-(4-aminopyrrolo[2,1-f][1,2,4]triazin-7-yl)-5-cyano-3,4-dihydroxytetrahydrofuran-2-yl)methyl (1-isopropyl-4-methylcyclohex-3-en-1-yl) carbonate], the EC50 in data set [1] was determined as 0.956 µM; in data set [4], 2.4 µM. This compound also displayed a CC50 in data set [2] of over 50 µM. In data set [3], the “DM Caco2 A to B” value came to 3.25. For the same compound, the “DM Caco2 B to A” value in data set [3] is 9.88. In addition, the “STA Human Plasma 37” value in “Plasma stability” was 205.11. The half-life at 2 µM in data set [5] was 30.3 min.
`CC(C)OC(=O)OC[C@H]1O[C@@](C#N)(c2ccc3c(NC(=O)OC(C)(C)C)ncnn23)[C@H](OC(=O)OC(C)C)[C@@H]1OC(=O)OC(C)C` [Compound 80, tert-butyl (7-((2R,3R,4R,5R)-2-cyano-3,4-bis((isopropoxycarbonyl)oxy)-5-(((isopropoxycarbonyl)oxy)methyl)tetrahydrofuran-2-yl)pyrrolo[2,1-f][1,2,4]triazin-4-yl)carbamate]: the EC50 in data set [1] is 2.04 µM. Also, the CC50 in data set [2] is over 50 µM. Also, in data set [3], the “DM Caco2 A to B” value was determined as 1.35 and the “DM Caco2 B to A” value was 0.95. For the same compound, the EC50 in data set [4] was over 50 µM. Also, the “STA Human Plasma 37” value in the data set “Plasma stability” stood at 604.23. Moreover, the half-life at 2 µM in data set [5] was 0.847 min.
Regarding `Cc1ccc(C(C)C)c(OC(=O)OC[C@H]2O[C@@](C#N)(c3ccc4c(N)ncnn34)[C@H](O)[C@@H]2O)c1` [Compound 82, ((2R,3S,4R,5R)-5-(4-aminopyrrolo[2,1-f][1,2,4]triazin-7-yl)-5-cyano-3,4-dihydroxytetrahydrofuran-2-yl)methyl (2-isopropyl-5-methylphenyl) carbonate], the EC50 turned out to be 2.41 µM in data set [1] and 1.55 µM in data set [4]. Also, in data set [2], the CC50 was over 50 µM. The “DM Caco2 A to B” value in data set [3] was determined as 2.73. The “DM Caco2 B to A” value in data set [3] turned out to be 20.67. Further, the “STA Human Plasma 37” value in “Plasma stability” turned out to be 193.22. Besides, in data set [5], the half-life at 2 µM is 2 min.
Regarding `CC(C)[C@@H]1CC[C@@H](C)C[C@H]1OC(=O)OC[C@H]1O[C@@](C#N)(c2ccc3c(N)ncnn23)[C@H](O)[C@@H]1O` [Compound 83, ((2R,3S,4R,5R)-5-(4-aminopyrrolo[2,1-f][1,2,4]triazin-7-yl)-5-cyano-3,4-dihydroxytetrahydrofuran-2-yl)methyl ((1R,2S,5R)-2-isopropyl-5-methylcyclohexyl) carbonate], the EC50 in data set [1] is 2.32 µM. The compound also had a CC50 in data set [2] of 21 µM. Further, in data set [3], the “DM Caco2 A to B” value amounted to 5.3 and the “DM Caco2 B to A” value is 25.42. Besides, in data set [4], the EC50 worked out at 24.5 µM. For the same compound, the “STA Human Plasma 37” value in “Plasma stability” is recorded as 1584. Also, in data set [5], the half-life at 2 µM is 12.1 min.
With `CC(C)OC(=O)OC[C@H]1O[C@@](C#N)(c2ccc3c(N)ncnn23)[C@H](O)[C@@H]1OC(=O)CCCCCCC(=O)O` [Compound 130, 8-(((2R,3S,4R,5R)-5-(4-aminopyrrolo[2,1-f][1,2,4]triazin-7-yl)-5-cyano-4-hydroxy-2-(((isopropoxycarbonyl)oxy)methyl)tetrahydrofuran-3-yl)oxy)-8-oxooctanoic acid], the concentration for a half-maximal effect (EC50) in data set [1] came to 2.96 µM; in data set [4], 9.04 µM. In data set [2], the cytotoxic concentration (CC50) was over 50 µM. Further, the “DM Caco2 A to B” value in data set [3] was found to be 0.12. For the same compound, in data set [3], the “DM Caco2 B to A” value amounted to 2.54. Also, the “STA Human Plasma 37” value in “Plasma stability” came out at 409.28. Also, the half-life at 2 µM in data set [5] was determined as 1.59 min.
As for `CCOC(=O)OC[C@H]1O[C@@](C#N)(c2ccc3c(NC(=O)OCc4ccccc4)ncnn23)[C@H](O)[C@@H]1O` [Compound 131, benzyl (7-((2R,3R,4S,5R)-2-cyano-5-(((ethoxycarbonyl)oxy)methyl)-3,4-dihydroxytetrahydrofuran-2-yl)pyrrolo[2,1-f][1,2,4]triazin-4-yl)carbamate], in data set [1], the EC50 was determined as 4.79 µM. This compound came in with a CC50 in data set [2] of over 50 µM. Also, in data set [3], the “DM Caco2 A to B” value worked out at 2.01 and the “DM Caco2 B to A” value was 15.52. For the same compound, the EC50 in data set [4] came out at 8.26 µM. Also, in the data set “Plasma stability”, the “STA Human Plasma 37” value is 150.92. Besides, the half-life at 2 µM in data set [5] is 2.64 min.
As to `CCOC(=O)OC[C@H]1O[C@@](C#N)(c2ccc3c(N)ncnn23)[C@@H]2OC(CC)O[C@@H]21` (stereo partly drawn) [Compound 132, ((3aR,4R,6R,6aR)-6-(4-aminopyrrolo[2,1-f][1,2,4]triazin-7-yl)-6-cyano-2-ethyltetrahydrofuro[3,4-d][1,3]dioxol-4-yl)methyl ethyl carbonate], the EC50 in data set [1] and in data set [4] was over 50 µM in each case. Also, in data set [2], the CC50 is over 50 µM. Also, the “DM Caco2 A to B” value in data set [3] is 12.34. The “DM Caco2 B to A” value in data set [3] worked out at 13.86. In addition, the “STA Human Plasma 37” value in “Plasma stability” was 12.304. Further, the half-life at 2 µM in data set [5] was 0.624 min.
With `COC(=O)O[C@H]1[C@@H](OC(=O)OC)[C@](C#N)(c2ccc3c(N)ncnn23)O[C@@H]1COC(=O)OC(C)C` [Compound 135, (2R,3R,4R,5R)-2-(4-aminopyrrolo[2,1-f][1,2,4]triazin-7-yl)-2-cyano-5-(((isopropoxycarbonyl)oxy)methyl)tetrahydrofuran-3,4-diyl dimethyl bis(carbonate)], the EC50 in data set [1] was over 50 µM. The same compound had a CC50 in data set [2] of over 50 µM. In data set [3], the “DM Caco2 A to B” value is 3.87 and the “DM Caco2 B to A” value was 18.05. The EC50 in data set [4] was over 50 µM. The “STA Human Plasma 37” value in the data set “Plasma stability” came out at 96.462. For the same compound, the half-life at 2 µM in data set [5] came to 0.653 min.
